# What was measured:
# Type in all cases: functional
# [1] = tested on: NCI-H322M; assay: Cytotoxicity against human NCI-H322M cells assessed as cell growth at 10 uM after 48 hrs by SRB assay; conditions: read-out: Activity
# [2] = Cytotoxicity against human UO31 cells assessed as cell growth at 10 uM after 48 hrs by SRB assay; conditions: UO-31, 48 h, read-out: Activity
# [3] = Cytotoxicity against human OVCAR8 cells assessed as cell growth at 10 uM after 48 hrs by SRB assay; conditions: OVCAR-8, 48 h, read-out: Activity
# [4] = tested on: U-251; assay: Cytotoxicity against human U251 cells assessed as cell growth at 10 uM after 48 hrs by SRB assay; conditions: U-251, 48 h, read-out: Activity
# [5] = tested on: NCI-H226; assay: Cytotoxicity against human NCI-H226 cells assessed as cell mortality at 10 uM after 48 hrs by SRB assay; conditions: NCI-H226, 48 h
# [6] = tested on: M14; assay: Cytotoxicity against human M14 cells assessed as cell growth at 10 uM after 48 hrs by SRB assay; conditions: M14, 48 h, read-out: Activity
# [7] = tested on: SK-MEL-28; assay: Cytotoxicity against human SK-MEL-28 cells assessed as cell growth at 10 uM after 48 hrs by SRB assay; conditions: SK-MEL-28, 48 h, read-out: Activity
# [8] = tested on: NCI-H226; assay: Cytotoxicity against human NCI-H226 cells assessed as cell growth at 10 uM after 48 hrs by SRB assay; conditions: NCI-H226, 48 h, read-out: Activity
# [9] = Cytotoxicity against human HCT15 cells assessed as cell growth at 10 uM after 48 hrs by SRB assay; conditions: HCT-15, 48 h, read-out: Activity
# [10] = tested on: CCRF-CEM; assay: Cytotoxicity against human CCRF-CEM cells assessed as cell growth at 10 uM after 48 hrs by SRB assay; conditions: read-out: Activity
# [11] = Cytotoxicity against human SKOV3 cells assessed as cell growth at 10 uM after 48 hrs by SRB assay; conditions: SK-OV-3, 48 h, read-out: Activity
# [12] = tested on: MCF7; assay: Cytotoxicity against human MCF7 cells assessed as cell growth at 10 uM after 48 hrs by SRB assay; conditions: MCF7, 48 h, read-out: Activity
# [13] = Cytotoxicity against human HOP62 cells assessed as cell growth at 7.25 uM after 48 hrs by SRB assay; conditions: HOP-62, 48 h, read-out: Activity
# [14] = tested on: EKVX; assay: Cytotoxicity against human EKVX cells assessed as cell growth at 7.25 uM after 48 hrs by SRB assay; conditions: read-out: Activity
# [15] = tested on: SK-MEL-5; assay: Cytotoxicity against human SK-MEL-5 cells assessed as cell growth at 7.25 uM after 48 hrs by SRB assay; conditions: SK-MEL-5, 48 h, read-out: Activity
# [16] = Cytotoxicity against human OVCAR8 cells assessed as cell growth at 7.25 uM after 48 hrs by SRB assay; conditions: OVCAR-8, 48 h, read-out: Activity
# [17] = Cytotoxicity against human DU145 cells assessed as cell growth at 7.25 uM after 48 hrs by SRB assay; conditions: DU-145, 48 h, read-out: Activity
# [18] = Cytotoxicity against human Caki1 cells assessed as cell growth at 7.25 uM after 48 hrs by SRB assay; conditions: CAKI-1, 48 h, read-out: Activity
# [19] = tested on: NCI-H322M; assay: Cytotoxicity against human NCI-H322M cells assessed as cell growth at 7.25 uM after 48 hrs by SRB assay; conditions: read-out: Activity
# [20] = tested on: MDA-MB-468; assay: Cytotoxicity against human MDA-MB-468 cells assessed as cell growth at 7.25 uM after 48 hrs by SRB assay; conditions: MDA-MB-468, 48 h, read-out: Activity
# [21] = Cytotoxicity against human HCT15 cells assessed as cell growth at 7.25 uM after 48 hrs by SRB assay; conditions: HCT-15, 48 h, read-out: Activity
# [22] = tested on: CCRF-CEM; assay: Cytotoxicity against human CCRF-CEM cells assessed as cell growth at 7.25 uM after 48 hrs by SRB assay; conditions: read-out: Activity
# [23] = Cytotoxicity against human UACC257 cells assessed as cell growth at 7.25 uM after 48 hrs by SRB assay; conditions: UACC-257, 48 h, read-out: Activity
# [24] = Cytotoxicity against human Hs 578T cells assessed as cell growth at 7.25 uM after 48 hrs by SRB assay; conditions: read-out: Activity
# [25] = tested on: 786-0; assay: Cytotoxicity against human 786-0 cells assessed as cell growth at 7.25 uM after 48 hrs by SRB assay; conditions: 786-0, 48 h, read-out: Activity
# [26] = Cytotoxicity against human SF295 cells assessed as cell growth at 7.25 uM after 48 hrs by SRB assay; conditions: SF-295, 48 h, read-out: Activity
# [27] = Cytotoxicity against human NCI-ADR-RES cells assessed as cell growth at 2.13 uM after 48 hrs by SRB assay; conditions: read-out: Activity
# [28] = Cytotoxicity against human IGROV1 cells assessed as cell growth at 2.13 uM after 48 hrs by SRB assay; conditions: IGROV-1, 48 h, read-out: Activity
# [29] = tested on: MDA-MB-231; assay: Cytotoxicity against human MDA-MB-231 cells assessed as cell growth at 2.13 uM after 48 hrs by SRB assay; conditions: MDA-MB-231, 48 h, read-out: Activity
# [30] = tested on: MCF7; assay: Cytotoxicity against human MCF7 cells assessed as cell growth at 2.13 uM after 48 hrs by SRB assay; conditions: MCF7, 48 h, read-out: Activity
# [31] = tested on: 786-0; assay: Cytotoxicity against human 786-0 cells assessed as cell growth at 2.13 uM after 48 hrs by SRB assay; conditions: 786-0, 48 h, read-out: Activity
# [32] = Cytotoxicity against human UACC62 cells assessed as cell growth at 2.13 uM after 48 hrs by SRB assay; conditions: UACC-62, 48 h, read-out: Activity
# [33] = Cytotoxicity against human HCT15 cells assessed as cell growth at 2.13 uM after 48 hrs by SRB assay; conditions: HCT-15, 48 h, read-out: Activity
# [34] = tested on: KM12; assay: Cytotoxicity against human KM12 cells assessed as cell growth at 2.13 uM after 48 hrs by SRB assay; conditions: KM12, 48 h, read-out: Activity
# [35] = Cytotoxicity against human SW620 cells assessed as cell growth at 2.13 uM after 48 hrs by SRB assay; conditions: SW-620, 48 h, read-out: Activity
# [36] = tested on: MDA-MB-468; assay: Cytotoxicity against human MDA-MB-468 cells assessed as cell growth at 2.13 uM after 48 hrs by SRB assay; conditions: MDA-MB-468, 48 h, read-out: Activity
# [37] = tested on: SR; assay: Cytotoxicity against human SR cells assessed as cell growth at 2.13 uM after 48 hrs by SRB assay; conditions: read-out: Activity
# [38] = tested on: CCRF-CEM; assay: Cytotoxicity against human CCRF-CEM cells assessed as cell growth at 2.13 uM after 48 hrs by SRB assay; conditions: read-out: Activity
# [39] = tested on: HT-29; assay: Cytotoxicity against human HT-29 cells assessed as cell growth at 2.13 uM after 48 hrs by SRB assay; conditions: HT-29, 48 h, read-out: Activity
# [40] = Cytotoxicity against human RXF393 cells assessed as cell growth at 2.13 uM after 48 hrs by SRB assay; conditions: RXF 393, 48 h, read-out: Activity
# [41] = Cytotoxicity against human HCT116 cells assessed as cell growth at 2.13 uM after 48 hrs by SRB assay; conditions: HCT-116, 48 h, read-out: Activity
structure (smiles),measurement,setting,value
CC(C)C[C@H](NC(=O)[C@H](CCCCN)NC(=O)[C@H](C)NC(=O)[C@H](CC(C)C)NC(=O)[C@H](CCCCN)NC(=O)[C@H](CCCCN)NC(=O)[C@H](C)NC(=O)[C@H](CC(C)C)NC(=O)[C@H](CCCCN)NC(=O)[C@H](C)NC(=O)[C@H](CC(C)C)NC(=O)[C@H](CCCCN)NC(=O)[C@@H](N)CC(=O)O)C(=O)N[C@@H](C)C(=O)N[C@@H](CCCCN)C(=O)N[C@@H](C)C(=O)N[C@@H](CCCCN)C(N)=O,growth at 10 µM,[1],110%
same,growth at 10 µM,[2],98%
same,growth at 10 µM,[3],101%
same,growth at 10 µM,[4],94.6%
same,mortality at 10 µM,[5],1%
same,growth at 10 µM,[6],108%
same,growth at 10 µM,[7],104%
same,growth at 10 µM,[8],99.1%
same,growth at 10 µM,[9],108%
same,growth at 10 µM,[10],108%
same,growth at 10 µM,[11],98.7%
same,growth at 10 µM,[12],96.7%
CCCCCCCCCCCCCCCC(=O)NCCCC[C@H](NC(=O)[C@H](C)NC(=O)[C@H](CCCCN)NC(=O)[C@H](C)NC(=O)[C@H](CC(C)C)NC(=O)[C@H](CCCCN)NC(=O)[C@H](C)NC(=O)[C@H](CC(C)C)NC(=O)[C@H](CCCCN)NC(=O)[C@H](CCCCN)NC(=O)[C@H](C)NC(=O)[C@H](CC(C)C)NC(=O)[C@H](CCCCN)NC(=O)[C@H](C)NC(=O)[C@H](CC(C)C)NC(=O)[C@H](CCCCN)NC(=O)[C@@H](N)CC(=O)O)C(N)=O,growth at 7.25 µM,[13],99.8%
same,growth at 7.25 µM,[14],105%
same,growth at 7.25 µM,[15],102%
same,growth at 7.25 µM,[16],96.4%
same,growth at 7.25 µM,[17],123%
same,growth at 7.25 µM,[18],98.3%
same,growth at 7.25 µM,[19],108%
same,growth at 7.25 µM,[20],95.9%
same,growth at 7.25 µM,[21],109%
same,growth at 7.25 µM,[22],111%
same,growth at 7.25 µM,[23],73.1%
same,growth at 7.25 µM,[24],101%
same,growth at 7.25 µM,[25],107%
same,growth at 7.25 µM,[26],110%
CCCCCCCCCCCCCCCCNCCO[C@H]1C[C@H](n2cc(C)c(=O)[nH]c2=O)O[C@@H]1C(=O)NCCCC[C@H](NC(=O)[C@H](C)NC(=O)[C@H](CCCCN)NC(=O)[C@H](C)NC(=O)[C@H](CC(C)C)NC(=O)[C@H](CCCCN)NC(=O)[C@H](C)NC(=O)[C@H](CC(C)C)NC(=O)[C@H](CCCCN)NC(=O)[C@H](CCCCN)NC(=O)[C@H](C)NC(=O)[C@H](CC(C)C)NC(=O)[C@H](CCCCN)NC(=O)[C@H](C)NC(=O)[C@H](CC(C)C)NC(=O)[C@H](CCCCN)NC(=O)[C@@H](N)CC(=O)O)C(N)=O,growth at 2.13 µM,[27],109%
same,growth at 2.13 µM,[28],107%
same,growth at 2.13 µM,[29],101%
same,growth at 2.13 µM,[30],98.9%
same,growth at 2.13 µM,[31],107%
same,growth at 2.13 µM,[32],104%
same,growth at 2.13 µM,[33],104%
same,growth at 2.13 µM,[34],103%
same,growth at 2.13 µM,[35],108%
same,growth at 2.13 µM,[36],100%
same,growth at 2.13 µM,[37],96.6%
same,growth at 2.13 µM,[38],108%
same,growth at 2.13 µM,[39],102%
same,growth at 2.13 µM,[40],113%
same,growth at 2.13 µM,[41],99.9%
